According to patent US5075308A, “Method for treating urinary obstruction” (Hitachi Chemical Co., Ltd., priority 1989, dated 1991):

Tests used:
[1] = test system: α1-adrenoceptor (thoracic aorta); experiment: α1-adrenoceptor-blocking activity in rabbit thoracic aorta strips (noradrenaline contraction, Schild plot); details: rabbit thoracic aorta helical strips, endothelium denuded; antagonism of noradrenaline contraction; mean (± standard deviation)
Experimental: (§1) Male albino rabbits weighing 2.2-2.5 kg were intravenously given pentobarbital (Nembutal® manufactured by Abbott) at a dose of 35 mg/kg body weight and sacrificed by exsanguination. The thoracic aorta and urinary bladder were rapidly excised and placed in modified Krebs solution. After removal of fat and unnecessary connective tissue, helical strips (3×15 mm in size) of the thoracic aorta and longitudinal strips (3×15 mm in size) of trigonum vesicae were prepared and used as specimen. The helical strips were carefully denuded of endothelium attached thereto in order to avoid any effect of the endothelium-derived vascular relaxing factors.
(§2) The preparations were vertically mounted in an organ bath filled with 20 ml of the modified Krebs solution (aerated with a gas mixture of 95 vol % of oxgen and 5 vol % of carbon dioxide and kept at 37° C.). The other end of each strip was attached to a transducer for tension measurement (the model TB-6llT manufactured by Nihon Kohden Kogyo K.K.). Changes in tension were recorded on a pen-writing oscillograph (the model Wi-68lG manufactured by Nihon Kohden Kogyo K.K.). Composition of the modified Krebs solution used herein was as follows: NaCl 115.0, KCl 4.7, MgSO4.7H2 O 1.2, CaCl2.2H2 O 2.5, KH2 PO4 1.2, NaHCO3 25.0 and glucose 10.0 (concentration in mM). The solution contained 10^-6 M propranolol, a […] (manufactured by Sigma). The loading tension was adjusted to attain a weight of 2 g for aorta and a weight of 1 g for trigone. The strips were allowed to equilibrate for at least 60 min. before initiation of the experiment, and during this period the modified Krebs solution in the organ bath was replaced every 20 min.
(§3) First, noradrenaline (manufactured by Sigma, 10^-6 -10^-4 M) was cumulatively added to each specimen to prepare a concentration-response curve to noradrenaline (to determine the 50% effective concentration ED50). […] The results were analyzed by Schild plotting to determine pA2 ([…] of concentration of the blocking agent necessary for parallel shift of the 50% contraction caused by noradrenaline to a concentration two fold as high).

[2] = test system: α1-adrenoceptor (trigonum vesicae); experiment: α1-adrenoceptor-blocking activity in rabbit trigonum vesicae strips (noradrenaline contraction, Schild plot); details: for Activity ratio: ratio of pA2 (calculated as concentration) with trigonum vesicae to pA2 with thoracic aorta
Experimental: as §1, §2, §3

[3] = molecular target: T1, α1-adrenoceptor (trigonum vesicae) (Oryctolagus cuniculus, UniProt O02824); experiment: as above; details: rabbit trigonum vesicae longitudinal strips; antagonism of noradrenaline contraction; mean (± standard deviation); read-out: pA2, trigonum vesicae (converted)
T1 construct: longitudinal strips (3×15 mm in size) of trigonum vesicae; from tissue; host or cells: rabbit urinary bladder, longitudinal strips of trigonum vesicae
T1 sequence (O02824 1-466): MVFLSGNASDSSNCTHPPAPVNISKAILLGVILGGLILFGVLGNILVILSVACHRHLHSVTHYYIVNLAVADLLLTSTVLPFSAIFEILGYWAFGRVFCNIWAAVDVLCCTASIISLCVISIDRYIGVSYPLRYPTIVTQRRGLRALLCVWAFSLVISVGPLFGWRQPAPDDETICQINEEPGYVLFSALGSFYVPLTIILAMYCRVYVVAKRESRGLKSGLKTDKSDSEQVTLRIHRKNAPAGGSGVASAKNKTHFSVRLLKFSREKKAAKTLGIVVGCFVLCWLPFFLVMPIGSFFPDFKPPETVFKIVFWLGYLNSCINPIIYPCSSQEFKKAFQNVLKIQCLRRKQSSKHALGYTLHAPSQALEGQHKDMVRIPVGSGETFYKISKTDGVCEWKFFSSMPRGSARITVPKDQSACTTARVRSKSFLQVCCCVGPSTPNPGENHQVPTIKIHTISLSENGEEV
Experimental: as §1, §2, §3

In the case of COc1cc2nc(N3CCN(C(=O)c4ccco4)CC3)nc(N)c2cc1OC [Prazosin, reference compound], the “pA2, thoracic aorta” value [1] is reported as 8.55 and the “pA2 comparison trigonum vesicae vs thoracic aorta (in words)” value [2] is reported as “larger pA2 in the thoracic aorta than in the trigonum vesicae”.
With CCOC(=O)c1c(C)nc(NCCN2CCN(c3ccccc3OC)CC2)nc1C [Compound 7, 2-[2-(4-(2-methoxyphenyl)-l-piperazinyl)ethyl]amino-5-ethoxycarbonyl-4,6-dimethylpyrimidine] the “pA2, thoracic aorta” value [1] was 7.92, the Kb [3] was 5.5 nM and the Activity ratio [2] was 2.19.
In the case of COc1ccccc1N1CCN(CCNc2nc(C)cc(C)n2)CC1 [Compound 3, 2-[2-(4-(2-methoxyphenyl)-l-piperazinyl)ethyl]amino-4,6-dimethylpyrimidine], the “pA2, thoracic aorta” value [1] is reported as 7.67, the Kb [3] is reported as 7.08 nM and the Activity ratio [2] is reported as 3.02.
With COc1ccccc1N1CCN(CCNc2nccc(Cl)n2)CC1 [Compound 5, 2-[2-(4-(2-methoxyphenyl)-l-piperazinyl)ethyl]amino-4-chloropyrimidine] the “pA2, thoracic aorta” value [1] was 7.83, the Kb [3] was 5.25 nM and the Activity ratio [2] was 2.82.
In the case of CCOC(=O)c1c(C)nc(NCCCCN2CCN(c3ccccc3OC)CC2)nc1C [Compound 2, 2-[4-(4-(2-methoxyphenyl)-l-piperazinyl)butyl]amino-5-ethoxycarbonyl-4,6-dimethylpyrimidine], the “pA2, thoracic aorta” value [1] is reported as 7.47, the Kb [3] is reported as 5.01 nM and the Activity ratio [2] is reported as 6.76.
COc1ccnc(NCCN2CCN(c3ccccc3OC)CC2)n1 [Compound 8, 2-[2-(4-(2-methoxyphenyl)-l-piperazinyl)ethyl]amino-4-methoxypyrimidine] was tested, and the “pA2, thoracic aorta” value [1] was 7.92, the Kb [3] was 6.46 nM and the Activity ratio [2] was 1.86.
For COc1ccccc1N1CCN(CCNc2ncccn2)CC1 [Compound 6, 2-[2-(4-(2-methoxyphenyl)-l-piperazinyl)ethyl]amino-pyrimidine], the “pA2, thoracic aorta” value [1] was 7.74, the Kb [3] was 7.94 nM and the Activity ratio [2] was 2.29.
For COc1ccccc1N1CCN(CCNc2nc(C)c(C(C)=O)c(C)n2)CC1 [Compound 1, 2-[2-(4-(2-methoxyphenyl)-l-piperazinyl)ethyl]amino-5-acetyl-4,6-dimethylpyrimidine], the “pA2, thoracic aorta” value [1] was 7.35, the Kb [3] was 8.51 nM and the Activity ratio [2] was 5.25.
With COc1ccnc(NCCCCN2CCN(c3ccccc3OC)CC2)n1 [Compound 9, 2-[4-(4-(2-methoxyphenyl)-l-piperazinyl)butyl]amino-4-methoxypyrimidine] the “pA2, thoracic aorta” value [1] was 7.96, the Kb [3] was 6.17 nM and the Activity ratio [2] was 1.78.
For CCOC(=O)c1c(C)nc(NCCCN2CCN(c3ccccc3OC)CC2)nc1C [Compound 4, 2-[3-(4-(2-methoxyphenyl)-l-piperazinyl)propyl]amino-5-ethoxycarbonyl-4,6-dimethylpyrimidine], the “pA2, thoracic aorta” value [1] was 7.65, the Kb [3] was 5.25 nM and the Activity ratio [2] was 4.27.
